Reference: patent publication US5891877A, “Pharmaceutical compounds” (Xenova Limited, priority 1996, dated 1999)
Counter-ions that a name gives are not always drawn.

Target: PAI-1 (Homo sapiens, UniProt P05121)
Test: PAI-1 inhibition in the S2251 chromogenic substrate assay (PAI functional assay)
Assay type: biochemical
Conditions: for INHIBITION OF PAI-1 (degree of inhibition): Table 1, first part, unit assumed
Experimental: In this assay, a compound is incubated with PAI-1 prior to addition to the tPA assay system. Inhibition of PAI-1 results in the production of plasmin from plasminogen. […]
Compounds of formula (A) were tested in a PAI chromogenic substrate assay. […] In turn, the plasmin cleaved the chromogenic substrate S2251 (Kabi-Vitrum) producing pNA (p-nitroaniline) which was detected scectrophotometrically at 405 nm.

Sequence of PAI-1 (P05121 24-402): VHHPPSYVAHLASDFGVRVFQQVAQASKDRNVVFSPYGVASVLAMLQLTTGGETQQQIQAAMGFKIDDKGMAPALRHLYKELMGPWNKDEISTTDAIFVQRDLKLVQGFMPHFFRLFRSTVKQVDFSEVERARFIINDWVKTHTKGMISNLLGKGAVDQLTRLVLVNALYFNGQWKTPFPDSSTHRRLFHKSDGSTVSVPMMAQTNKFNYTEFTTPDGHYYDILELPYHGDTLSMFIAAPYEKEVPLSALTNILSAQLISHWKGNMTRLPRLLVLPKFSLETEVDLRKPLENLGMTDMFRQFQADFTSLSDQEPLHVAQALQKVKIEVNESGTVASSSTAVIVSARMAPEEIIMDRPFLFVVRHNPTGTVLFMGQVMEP

Row | Compound | INHIBITION OF PAI-1 (degree of inhibition) (6.25 μm) | INHIBITION OF PAI-1 (degree of inhibition) (12.5 μm) | INHIBITION OF PAI-1 (degree of inhibition) (25 μm) | INHIBITION OF PAI-1 (degree of inhibition) (50 μm) | INHIBITION OF PAI-1 (degree of inhibition) (100 μm) | IC50 (PAI-1, S2251 assay, Table 2)
1 | O=c1[nH]/c(=C\c2ccc3c(c2)OCO3)c(=O)[nH]/c1=C\c1ccccc1 [Compound 1808, (3Z,6Z)-3-Benzylidene-6-(3,4-methylenedioxybenzylidene)-2,5-piperazinedione] | 1% | 2% | 73% | 48% | 76% | –
2 | COc1ccc(/C=c2\[nH]c(=O)/c(=C/c3ccc4c(c3)OCO4)[nH]c2=O)cc1 [Compound 1809, (3Z,6Z)-3-(4-Methoxybenzylidene)-6-(3,4-methylenedioxybenzylidene)-2,5-piperazinedione] | 1% | 7% | 84% | 76% | 81% | –
3 | CC(=O)Nc1ccc(/C=c2\[nH]c(=O)/c(=C/c3ccc4c(c3)OCO4)[nH]c2=O)cc1 [Compound 1845, (3Z,6Z)-3-(4-Acetamidobenzylidene)-6-(3,4-methylenedioxybenzylidene)-2,5-piperazinedione] | 53% | 60% | 49% | 30% | 14% | –
4 | O=c1[nH]/c(=C\C2CCCCC2)c(=O)[nH]/c1=C\c1ccccc1 [Compound 1884, (3Z,6Z)-3-Benzylidene-6-cyclohexylmethylene-2,5-piperazinedione] | 0% | 0% | 0% | 14% | 40% | –
5 | COc1ccc(/C=c2\[nH]c(=O)/c(=C/c3ccc(OC(=O)CN4C(=O)c5ccccc5C4=O)cc3)[nH]c2=O)cc1 [Compound 1886, (3Z,6Z)-3-(4-Methoxybenzylidene)-6-(4-phthalimidoacetoxybenzylidene)-2,5-piperazinedione] | 0% | 6% | 18% | 40% | 42% | –
6 | CCOC(OCC)c1ccc(/C=c2\[nH]c(=O)/c(=C/c3ccccc3)[nH]c2=O)cc1 [Compound 1891] | 3% | 3% | 17% | 36% | 28% | –
7 | O=c1[nH]/c(=C\c2ccc(OCCn3ccnc3)cc2)c(=O)[nH]/c1=C\c1ccccc1 [Compound 1910, (3Z,6Z)-3-Benzylidene-6-(4-(2-imidazolylethoxy)benzylidene)-2,5-piperazinedione] | 63% | 61% | 50% | 36% | 27% | 5 to 10 µM
8 | CN(C)c1ccc(C=C/C=c2\[nH]c(=O)/c(=C/c3ccccc3)[nH]c2=O)cc1 [Compound 1921, (3Z,6Z)-3-Benzylidene-6-(4-dimethylaminocinnamylidene)-2,5-piperazinedione] | 16% | 14% | 25% | 43% | 65% | –
9 | O=c1[nH]/c(=C\c2ccccc2)c(=O)[nH]/c1=C\C=C(c1ccccc1)c1ccccc1 [Compound 1922, (3Z,6Z)-3-Benzylidene-6-(γ-phenylcinnamylidene)-2,5-piperazinedione] | 14% | 13% | 26% | 11% | 13% | –
10 | O=c1[nH]/c(=C\c2ccccc2)c(=O)[nH]/c1=C\C=Cc1ccc([N+](=O)[O-])cc1 [Compound 1923] | 13% | 12% | 20% | 31% | 38% | –
11 | O=c1[nH]/c(=C\c2c[nH]cn2)c(=O)[nH]/c1=C\c1ccccc1 [Compound 1926, (3Z,6Z)-3-Benzylidene-6-(4-imidazolyl)methylene-2,5-piperazinedione] | 10% | 6% | 12% | 35% | 36% | –
12 | Cc1[nH]cnc1/C=c1\[nH]c(=O)/c(=C/c2ccccc2)[nH]c1=O [Compound 1927, (3Z,6Z)-3-Benzylidene-6-(4-(5-methylimidazolyl))methylene-2,5-piperazinedione] | 14% | 22% | 20% | 39% | 33% | –
13 | O=c1[nH]/c(=C\c2ccc(Cn3ccnc3)cc2)c(=O)[nH]/c1=C\c1ccccc1 [Compound 1929, (3Z,6Z)-3-Benzylidene-6-(4-(1-imidazolylmethyl)benzylidene)-2,5-piperazinedione] | 16% | 48% | 59% | 45% | 27% | –
14 | O=c1[nH]/c(=C\c2ccc(-n3ccnc3)cc2)c(=O)[nH]/c1=C\c1ccccc1 [Compound 1930] | 30% | 38% | 79% | 61% | 54% | –
15 | COc1cc(C=C/C=c2\[nH]c(=O)/c(=C/c3ccccc3)[nH]c2=O)ccc1OCCN(C)C [Compound 1950, (3Z,6Z)-3-Benzylidene-6-(4-(2-dimethylaminoethoxy)-3-methoxycinnamylidene)-2,5-piperazinedione] | 1% | 2% | 2% | 3% | 19% | –
16 | COc1cc(/C=c2\[nH]c(=O)/c(=C/c3ccccc3)[nH]c2=O)ccc1OCCN(C)C [Compound 1959, (3Z,6Z)-3,Benzylidene-6-(4-(2-dimethylaminoethoxy)-3-methoxybenzylidene)-2,5-piperazinedione hydrochloride] | 1% | 2% | 2% | 1% | 5% | –
17 | CN(C)CCCOc1ccc(/C=c2\[nH]c(=O)/c(=C/c3ccc(Cn4ccnc4)cc3)[nH]c2=O)cc1 [Compound 1975, (3Z,6Z)-3-(4-(3-Dimethylaminopropoxy)benzylidene)-6-(4-(1-imidazolylmethyl)benzylidene)-2,5-piperazinedione] | 0% | 0% | 0% | 0% | 7% | –
